# Assay results published in ChEMBL document CHEMBL4346678, “Synthesis and anti-cancer evaluation of folic acid-peptide- paclitaxel conjugates for addressing drug resistance” (Eur J Med Chem, 2019).
# Calls of active or inactive are those of the source. No cut-off for these calls is given here. Starred links: 1 amine or outer side, 2 acyl side, 3 side chain; linkers in the order of their positions; H or OH if unused. Residues, ends and D or L forms follow the SMILES beside them. *: point of attachment. X1 = CC(=O)O[C@H]1C(=O)[C@@]2(C)[C@H]([C@H](OC(=O)c3ccccc3)[C@]3(O)C[C@H](OC(=O)[C@H](OC(=O)CCCCCN4C(=O)CC(*)C4=O)[C@@H](NC(=O)c4ccccc4)c4ccccc4)C(C)=C1C3(C)C)[C@]1(OC(C)=O)CO[C@@H]1C[C@@H]2O; Pteroyl = Nc1nc2ncc(CNc3ccc(C(=O)*)cc3)nc2c(=O)[nH]1; γGlu = O=C(O)[C@H](CCC(=O)[*:2])N[*:1]
# Experiments:
# A2780 = experiment: Cytotoxicity against human A2780 cells incubated for 48 hrs by MTT assay; type: functional, cell-based; conditions: A2780, 48 h
# Tubulin (Sus scrofa) = Tubulin (Sus scrofa) (UniProt P02554+P02550); experiment: Induction of porcine brain tubulin polymerization at 3 uM by fluorescence analysis
# Sequence of Tubulin (Sus scrofa) (P02550 whole entry, looked up): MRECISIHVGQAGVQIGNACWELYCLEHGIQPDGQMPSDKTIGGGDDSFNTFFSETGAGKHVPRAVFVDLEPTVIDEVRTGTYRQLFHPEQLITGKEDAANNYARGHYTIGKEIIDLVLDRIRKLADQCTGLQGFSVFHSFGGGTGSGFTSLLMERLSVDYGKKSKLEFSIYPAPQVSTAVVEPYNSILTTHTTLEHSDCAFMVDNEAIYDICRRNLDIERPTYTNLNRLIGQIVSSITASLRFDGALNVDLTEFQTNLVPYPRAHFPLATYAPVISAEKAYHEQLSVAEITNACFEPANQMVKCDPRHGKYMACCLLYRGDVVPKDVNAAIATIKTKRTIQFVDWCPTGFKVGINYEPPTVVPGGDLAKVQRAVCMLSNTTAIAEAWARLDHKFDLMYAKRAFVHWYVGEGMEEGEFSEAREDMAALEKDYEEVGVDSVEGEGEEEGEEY
# Sequence of Tubulin (Sus scrofa) (P02554 whole entry, looked up): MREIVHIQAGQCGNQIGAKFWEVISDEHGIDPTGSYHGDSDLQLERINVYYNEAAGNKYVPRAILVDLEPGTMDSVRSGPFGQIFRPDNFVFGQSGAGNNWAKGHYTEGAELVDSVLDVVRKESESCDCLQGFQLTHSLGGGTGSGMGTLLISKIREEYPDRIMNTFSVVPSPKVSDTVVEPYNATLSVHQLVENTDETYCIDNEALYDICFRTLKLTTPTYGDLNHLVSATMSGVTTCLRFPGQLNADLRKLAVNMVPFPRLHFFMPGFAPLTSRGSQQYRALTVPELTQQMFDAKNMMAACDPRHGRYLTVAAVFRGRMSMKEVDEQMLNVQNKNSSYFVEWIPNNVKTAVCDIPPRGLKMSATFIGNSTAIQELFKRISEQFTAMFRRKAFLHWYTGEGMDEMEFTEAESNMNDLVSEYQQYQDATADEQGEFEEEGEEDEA
# MCF7/PTX [1] = experiment: Induction of apoptosis in human MCF7/PTX cells assessed as early apoptotic cells at 4 uM incubated for 12 hrs by Annexin V-FITC/propidium iodide staining based flow cytometric analysis (reference value: 1.1%); type: functional
# MCF7/PTX [2] = experiment: Induction of apoptosis in human MCF7/PTX cells assessed as live cells at 0.5 uM incubated for 12 hrs by Annexin V-FITC/propidium iodide staining based flow cytometric analysis (reference value: 95.9%); type: functional
# HUVEC = experiment: Cytotoxicity against HUVEC incubated for 48 hrs by MTT assay; type: cell-based; conditions: Homo sapiens
# MCF7/PTX [3] = experiment: Induction of apoptosis in human MCF7/PTX cells assessed as necrotic cells at 1 uM incubated for 12 hrs by Annexin V-FITC/propidium iodide staining based flow cytometric analysis (reference value: 2.1%); type: functional
# MCF7/PTX [4] = experiment: Induction of apoptosis in human MCF7/PTX cells assessed as early apoptotic cells at 1 uM incubated for 12 hrs by Annexin V-FITC/propidium iodide staining based flow cytometric analysis (reference value: 1.1%); type: functional
# MCF7/PTX [5] = experiment: Induction of apoptosis in human MCF7/PTX cells assessed increase in cytochrome-c expression in cytoplasm at 3 uM incubated for 2 hrs by Western blot analysis; type: functional, cell-based
# MCF7/PTX [6] = experiment: Induction of apoptosis in human MCF7/PTX cells assessed as necrotic cells at 6 uM incubated for 12 hrs by Annexin V-FITC/propidium iodide staining based flow cytometric analysis (reference value: 2.1%); type: functional
# [7] = Half life in Wistar rat plasma at 500 ug/ml measured over 24 hrs at 37 degC by UPLC/MS analysis; type: ADME, cell-free
# MCF7/PTX [8] = experiment: Induction of membrane disruption in human MCF7/PTX cells incubated for 12 hrs by LDH release assay; type: functional, cell-based
# MCF7/PTX [9] = experiment: Induction of apoptosis in human MCF7/PTX cells assessed as necrotic cells at 0.5 uM incubated for 12 hrs by Annexin V-FITC/propidium iodide staining based flow cytometric analysis (reference value: 2.1%); type: functional
# MCF7/PTX [10] = experiment: Induction of mitochondrial membrane potential loss in human MCF7/PTX cells at 3 uM incubated for 12 hrs by JC1 staining-based confocal microscopic method; type: functional, cell-based
# MCF7/PTX [11] = experiment: Induction of apoptosis in human MCF7/PTX cells assessed as live cells at 1 uM incubated for 12 hrs by Annexin V-FITC/propidium iodide staining based flow cytometric analysis (reference value: 95.9%); type: functional
# MCF7/PTX [12] = experiment: Induction of apoptosis in human MCF7/PTX cells assessed as late apoptotic cells at 2 uM incubated for 12 hrs by Annexin V-FITC/propidium iodide staining based flow cytometric analysis (reference value: 0.9%); type: functional
# MCF7 = experiment: Cytotoxicity against human MCF7 cells incubated for 48 hrs by MTT assay; type: functional, cell-based; conditions: MCF7, 48 h
# [13] = Antitumor activity against […] cells xenografted in ICR mouse assessed as reduction in tumor volume at 12 umol/kg administered once every 2 days via peritumoral route for 2 weeks measured for 22 days by caliper analysis relative to control; type: functional
# MCF7/PTX [14] = experiment: Induction of apoptosis in human MCF7/PTX cells assessed as late apoptotic cells at 1 uM incubated for 12 hrs by Annexin V-FITC/propidium iodide staining based flow cytometric analysis (reference value: 0.9%); type: functional
# Erythrocyte = experiment: Hemolytic activity in Wistar rat erythrocytes incubated for 1 hr; type: ADME, cell-based
# MCF7/PTX [15] = experiment: Induction of apoptosis in human MCF7/PTX cells assessed as necrotic cells at 4 uM incubated for 12 hrs by Annexin V-FITC/propidium iodide staining based flow cytometric analysis (reference value: 2.1%); type: functional
# MCF7/PTX [16] = experiment: Induction of apoptosis in human MCF7/PTX cells assessed as necrotic cells at 2 uM incubated for 12 hrs by Annexin V-FITC/propidium iodide staining based flow cytometric analysis (reference value: 2.1%); type: functional
# MCF7/PTX [17] = experiment: Cytotoxicity against human MCF7/PTX cells incubated for 48 hrs by MTT assay; type: functional, cell-based
# MCF7/PTX [18] = experiment: Induction of membrane disruption in human MCF7/PTX cells at 3 uM incubated for 12 hrs by AO/EB double staining based fluorescence microscopic method; type: functional, cell-based
# MCF7/PTX [19] = experiment: Induction of apoptosis in human MCF7/PTX cells assessed as late apoptotic cells at 4 uM incubated for 12 hrs by Annexin V-FITC/propidium iodide staining based flow cytometric analysis (reference value: 0.9%); type: functional
# MCF7/PTX [20] = experiment: Induction of apoptosis in human MCF7/PTX cells assessed as early apoptotic cells at 3 uM incubated for 12 hrs by Annexin V-FITC/propidium iodide staining based flow cytometric analysis (reference value: 1.1%); type: functional
# MCF7/PTX [21] = experiment: Induction of apoptosis in human MCF7/PTX cells assessed as early apoptotic cells at 2 uM incubated for 12 hrs by Annexin V-FITC/propidium iodide staining based flow cytometric analysis (reference value: 1.1%); type: functional
# MCF7/PTX [22] = experiment: Induction of apoptosis in human MCF7/PTX cells assessed as early apoptotic cells at 0.5 uM incubated for 12 hrs by Annexin V-FITC/propidium iodide staining based flow cytometric analysis (reference value: 1.1%); type: functional
# [23] = Toxicity in ICR mouse xenografted with […] H22 cells assessed as change in body weight at 12 umol/kg administered once every 2 days via peritumoral route for 2 weeks; conditions: in vivo, other
# MCF7/PTX [24] = experiment: Induction of apoptosis in human MCF7/PTX cells assessed as live cells at 4 uM incubated for 12 hrs by Annexin V-FITC/propidium iodide staining based flow cytometric analysis (reference value: 95.9%); type: functional
# MCF7/PTX [25] = experiment: Induction of apoptosis in human MCF7/PTX cells assessed as late apoptotic cells at 3 uM incubated for 12 hrs by Annexin V-FITC/propidium iodide staining based flow cytometric analysis (reference value: 0.9%); type: functional
# MCF7/PTX [26] = experiment: Induction of apoptosis in human MCF7/PTX cells assessed as late apoptotic cells at 6 uM incubated for 12 hrs by Annexin V-FITC/propidium iodide staining based flow cytometric analysis (reference value: 0.9%); type: functional
# K562 = experiment: Cytotoxicity against human K562 cells incubated for 48 hrs by MTT assay; type: functional, cell-based; conditions: K562, 48 h
# MCF7/PTX [27] = experiment: Induction of membrane disruption in human MCF7/PTX cells incubated for 12 hrs by AO/EB double-staining based fluorescence microscopic method; type: functional, cell-based
# MCF7/PTX [28] = experiment: Induction of apoptosis in human MCF7/PTX cells assessed as increase in cleaved caspase 3 level in cytoplasm at 3 uM incubated for 2 hrs by Western blot analysis; type: functional, cell-based
# MCF7/PTX [29] = experiment: Induction of apoptosis in human MCF7/PTX cells assessed as necrotic cells at 3 uM incubated for 12 hrs by Annexin V-FITC/propidium iodide staining based flow cytometric analysis (reference value: 2.1%); type: functional
# MCF7/PTX [30] = experiment: Induction of apoptosis in human MCF7/PTX cells assessed as early apoptotic cells at 6 uM incubated for 12 hrs by Annexin V-FITC/propidium iodide staining based flow cytometric analysis (reference value: 1.1%); type: functional
# [31] = Solubility of the compound in water; type: physicochemical
# MCF7/PTX [32] = experiment: Induction of apoptosis in human MCF7/PTX cells assessed as late apoptotic cells at 0.5 uM incubated for 12 hrs by Annexin V-FITC/propidium iodide staining based flow cytometric analysis (reference value: 0.9%); type: functional
# MCF7/PTX [33] = experiment: Induction of apoptosis in human MCF7/PTX cells assessed as live cells at 6 uM incubated for 12 hrs by Annexin V-FITC/propidium iodide staining based flow cytometric analysis (reference value: 95.9%); type: functional
# MCF7/PTX [34] = experiment: Induction of apoptosis in human MCF7/PTX cells incubated for 12 hrs by Annexin V-FITC/propidium iodide staining-based flow cytometric analysis; type: functional, cell-based
# SK-OV-3 = experiment: Cytotoxicity against human SKOV3 cells incubated for 48 hrs by MTT assay; type: functional, cell-based; conditions: SK-OV-3, 48 h
# MCF7/PTX [35] = experiment: Induction of apoptosis in human MCF7/PTX cells assessed as live cells at 2 uM incubated for 12 hrs by Annexin V-FITC/propidium iodide staining based flow cytometric analysis (reference value: 95.9%); type: functional
# MCF7/PTX [36] = experiment: Induction of apoptosis in human MCF7/PTX cells assessed as live cells at 3 uM incubated for 12 hrs by Annexin V-FITC/propidium iodide staining based flow cytometric analysis (reference value: 95.9%); type: functional
structure (smiles),measurement,setting,value
CC(=O)O[C@H]1C(=O)[C@@]2(C)[C@H]([C@H](OC(=O)c3ccccc3)[C@]3(O)C[C@H](OC(=O)[C@H](OC(=O)CCCCCN4C(=O)CC(SC[C@H](NC(=O)[C@H](CCCNC(=N)N)NC(=O)[C@H](CCCNC(=N)N)NC(=O)[C@H](CC(C)C)NC(=O)[C@H](CCCNC(=N)N)NC(=O)[C@H](CCCNC(=N)N)NC(=O)[C@H](Cc5ccccc5)NC(=O)[C@H](Cc5ccccc5)NC(=O)[C@H](CCCNC(=N)N)NC(=O)[C@H](CCCNC(=N)N)NC(=O)[C@H](Cc5ccccc5)NC(=O)[C@H](CCCNC(=N)N)NC(=O)[C@H](CCCNC(=N)N)NC(=O)[C@@H](NC(=O)[C@H](CC(C)C)NC(=O)CC[C@H](NC(=O)c5ccc(NCc6cnc7nc(N)[nH]c(=O)c7n6)cc5)C(=O)O)C(C)C)C(=O)N[C@H](C(=O)N[C@@H](CC(C)C)C(=O)N[C@@H](CC(C)C)C(N)=O)C(C)C)C4=O)[C@@H](NC(=O)c4ccccc4)c4ccccc4)C(C)=C1C3(C)C)[C@]1(OC(C)=O)CO[C@@H]1C[C@@H]2O (stereo partly drawn) ({Pteroyl-γGlu}-LVRRFRRFFRRLRRC(X1)VLL-NH2),IC50,A2780,1.42 µM
same,Activity,Tubulin (Sus scrofa),Active
same,Activity,MCF7/PTX [1],1.4%
same,Activity,MCF7/PTX [2],83.1%
same,IC50,HUVEC,45.2 µM
same,Activity,MCF7/PTX [3],5.6%
same,Activity,MCF7/PTX [4],1.6%
same,Activity,MCF7/PTX [5],Active
same,Activity,MCF7/PTX [6],7.5%
same,half-life at 500 ug/ml,[7],5.9 h
same,Activity,MCF7/PTX [8],Dose-dependent effect
same,Activity,MCF7/PTX [9],7.1%
same,Activity,MCF7/PTX [10],Active
same,Activity,MCF7/PTX [11],81.4%
same,Activity,MCF7/PTX [12],28.8%
same,IC50,MCF7,1.39 µM
same,inhibition in vivo at 12 µmol/kg,[13],69%
same,Activity,MCF7/PTX [14],11.4%
same,Activity,Erythrocyte,Toxic
same,Activity,MCF7/PTX [15],15.1%
same,Activity,MCF7/PTX [16],3.9%
same,IC50,MCF7/PTX [17],2.92 µM
same,Activity,MCF7/PTX [18],Active
same,Activity,MCF7/PTX [19],54.6%
same,Activity,MCF7/PTX [20],1.2%
same,Activity,MCF7/PTX [21],1.5%
same,Activity,MCF7/PTX [22],2.4%
same,Activity,[23],Non-Toxic
same,Activity,MCF7/PTX [24],28.8%
same,Activity,MCF7/PTX [25],41.6%
same,Activity,MCF7/PTX [26],62%
same,IC50,K562,3.85 µM
same,Activity,MCF7/PTX [27],Dose-dependent effect
same,Activity,MCF7/PTX [28],Active
same,Activity,MCF7/PTX [29],5.6%
same,Activity,MCF7/PTX [30],1.3%
same,solubility,[31],> 20 mg/mL
same,Activity,MCF7/PTX [32],7.4%
same,Activity,MCF7/PTX [33],29.2%
same,Activity,MCF7/PTX [34],Dose-dependent effect
same,IC50,SK-OV-3,5.49 µM
same,Activity,MCF7/PTX [35],65.8%
same,Activity,MCF7/PTX [36],51.6%
